# Tests used:
# [1] = test system: TS/A cells; test: Cell proliferation assay (BrDU incorporation), TS/A; type: cell-based, mouse; settings: TS/A cells treated 24 h, concentration-dependent, level reached
# Experimental: FIG. 2. OCDO is a tumor promoter in vitro and in vivo and its inhibition contributes to the anti-tumor effects of Tam and DDA. (A, B) Histograms representing the effect of OCDO or 17β-estrogen (E2) on MCF7 (A) and TS/A (B) cell proliferation after 24 h treatment using a colorimetric immunoassay measuring BrDU incorporation in DNA (C, D) Histogram representing the effect of OCDO on MCF7 (C) and TS/A (D) cell invasion. Data are the mean of three separate experiments (±[…]) Mice were implanted s.c. with MCF7 (E) or TS/A (F) cells and animals (8 per group) were treated s.c. every day starting on the day of implantation with either the solvent vehicle or OCDO (16 μg/kg for MCF7 or 50 μg/kg for TS/A). Animals were monitored for tumour growth twice a week. The data are representative of three independent experiments. The mean tumor volume±s.e.m is shown, *P<0.05, **P<0.01, ***P<0.001 (analysis of variance (ANOVA), Dunnett's post test). […] (I, J, K). Murine […], or human MDA-MB231 (J) or MDA-MB468 (K) cells implanted s.c. into mice (8 per group) and animals were treated s.c. with either the solvent vehicle or OCDO (16 μg/kg for MDA-MB-231 and MDA-MB-468 or 50 μg/kg for E0771). […] At the end of this time, cells were incubated with BrDU for an additional 8 h and then evaluated for proliferation using the ELISA kit, Roche Diagnostic, as indicated by the manufacturer.
# [2] = test system: TS/A tumors; test: Growth of TS/A tumors implanted s.c. into mice; type: in vivo
# Experimental: FIG. 2. OCDO is a tumor promoter in vitro and in vivo and its inhibition contributes to the anti-tumor effects of Tam and DDA. (A, B) Histograms representing the effect of OCDO or 17β-estrogen (E2) on MCF7 (A) and TS/A (B) cell proliferation after 24 h treatment using a colorimetric immunoassay measuring BrDU incorporation in DNA (C, D) Histogram representing the effect of OCDO on MCF7 (C) and TS/A (D) cell invasion. Data are the mean of three separate experiments (±s.e.m), *P<0.05, **P<0.01, ***P<0.001 (Student's t-test). (E, F) Mice were implanted s.c. with MCF7 (E) or TS/A (F) cells and animals (8 per group) were treated s.c. every day starting on the day of implantation with either the solvent vehicle or OCDO (16 μg/kg for MCF7 or 50 μg/kg for TS/A). Animals were monitored for tumour growth twice a week. The data are representative of three independent experiments. The mean tumor volume±s.e.m is shown, *P<0.05, **P<0.01, ***P<0.001 (analysis of variance (ANOVA), Dunnett's post test). (G) Mean (±s.e.m) of Ki67 positive cell number determined from IHC staining of MCF7 tumor sections from (E), n=8, *P<0.05 (Student's t-test) using HistoQuant, Pannoramic Viewer (3DHistech). (H) Representative Ki67 staining of TS/A tumor sections from (F) showing increased staining in OCDO-treated tumor compared with control-treated tumor. (I, J, K). Murine E0771(I), or human MDA-MB231 (J) or MDA-MB468 (K) cells implanted s.c. into mice (8 per group) and animals were treated s.c. with either the solvent vehicle or OCDO (16 μg/kg for MDA-MB-231 and MDA-MB-468 or 50 μg/kg for E0771). The data are representative of two independent experiments. Statistical analysis was performed as in E and F. (L) Mice were implanted s.c. with TS/A cells and animals (8 per group) were treated s.c. every day with either the solvent vehicle, OCDO (50 μg/kg), Tam (56 mg/kg), DDA (20 mg/kg) or the combination of Tam (56 mg/kg) +OCDO (50 μg/kg) or DDA (20 mg/kg)+OCDO (50 μg/kg). The data are representative of three independent experiments. Statistical analysis was performed as in E and F.
# Exponentially growing MCF7, ShMCF7, E0771, MDA-MB231, MDA-MB468 and TS/A cells were collected, washed twice in PBS and resuspended in PBS. TS/A and E9771 tumours were prepared by subcutaneous transplantation of 35×10^3 cells or 3×10^5 cells respectively in 100 μl PBS into the flank of BALB/c or C57B16 mice. For other tumors, 5 to 10×10^6 cells in 200 μl PBS/matrigel (1/1) were injected into the flank of NMRI nude mice. Animals were treated as indicated in the legends. Animals were examined daily, and body weights were measured twice per week. In all the experiments, the tumor volume was determined by direct measurement with a caliper and was calculated using the formula (width^2×length)/2. Tumors were either frozen in liquid nitrogen or fixed in 10% neutral-buffered formalin and embedded in paraffin for immunohistochemical analysis. Paraffin sections were stained with haematoxylin and eosin for histomorphological analyses. Immunohistochemical staining was done on paraffin-embedded tissue sections, using a specific Ki67 antibody (Dako).
# We then assayed the anti-growth effect of Tam or DDA against TS/A tumors in the absence and presence of OCDO. As above, TS/A tumors implanted into immunocompetent mice were treated s.c. every day either with either the solvent vehicle (control), OCDO (50 μg/kg), Tam (56 mg/kg), DDA (20 mg/kg) or the combination of Tam (56 mg/kg)+OCDO (50 μg/kg) or DDA (20 mg/kg) +OCDO (50 μg/kg).
structure (smiles),measurement,setting,value
"CC(C)CCC[C@@H](C)[C@H]1CC[C@H]2[C@@H]3CC(=O)[C@@]4(O)C[C@@H](O)CC[C@]4(C)[C@H]3CC[C@]12C [OCDO, 6-oxo-cholestan-3β,5α-diol]",growth rate (cell proliferation) relative to the control,[1],1.7 fold
same,tumor growth compared with the control group,"[2]; TS/A tumors in immunocompetent mice, OCDO 50 μg/kg s.c. every day",significantly increased
same,proliferative marker Ki67 in tumors compared with control-treated tumors,"[2]; TS/A tumors, IHC",increased
same,enhancement of TS/A tumor growth compared with the control group,"[2]; after 13 days of treatment, OCDO 50 μg/kg s.c. every day, p<0.01",140%
